Melting point and IC50 data for 29 molecules are collected here from US9914730B2, “Azaquinazoline inhibitors of Atypical protein Kinase C” (Ignyta, Inc., priority 2012, dated 2018).

One data set has as its target T1, full-length human PKCι (Homo sapiens, UniProt P41743).
T1 construct: Recombinant, full-length human PKCι expressed in Sf21 insect cells is also commercially available; purchased; host or cells: Sf21 insect cells
T1 sequence (P41743 1-596): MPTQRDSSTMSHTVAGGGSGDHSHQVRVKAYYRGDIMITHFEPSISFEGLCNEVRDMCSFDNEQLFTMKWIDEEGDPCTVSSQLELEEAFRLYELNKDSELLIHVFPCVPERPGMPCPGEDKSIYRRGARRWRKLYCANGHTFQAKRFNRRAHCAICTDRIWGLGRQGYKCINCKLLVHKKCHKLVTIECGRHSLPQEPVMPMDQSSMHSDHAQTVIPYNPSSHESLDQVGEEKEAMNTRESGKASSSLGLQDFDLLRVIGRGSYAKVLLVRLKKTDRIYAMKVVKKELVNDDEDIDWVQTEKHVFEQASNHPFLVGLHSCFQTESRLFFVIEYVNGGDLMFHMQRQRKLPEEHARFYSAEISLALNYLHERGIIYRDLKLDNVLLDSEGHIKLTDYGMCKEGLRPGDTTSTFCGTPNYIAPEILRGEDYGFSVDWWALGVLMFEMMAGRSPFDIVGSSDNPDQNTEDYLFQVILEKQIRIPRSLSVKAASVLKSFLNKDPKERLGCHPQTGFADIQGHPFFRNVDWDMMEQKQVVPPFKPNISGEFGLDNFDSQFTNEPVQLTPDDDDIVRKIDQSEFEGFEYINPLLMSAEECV
The data set is described as follows: PKCι IC50 IMAP assay, full-length PKCι at 150 μM ATP. The data set is classed as biochemical. The note with it: read-out: IC50 in IMAP assay against full length PKCi at 150 μM ATP. An outline of the steps: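 Phosphorylation of a 5FAM-tagged PKCε pseudopeptide-derived substrate (100 nM) by full-length recombinant human PKCι was monitored by IMAP fluorescence polarisation. ATP was held at 150 μM, five times its apparent KM, with 60 min room-temperature incubation.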

Molecule `COc1cncc2nc(-c3ccnc(Nc4ccccc4)c3)nc(N3CCCCC3)c12` [Example 459, [4-(5-Methoxy-4-piperidin-1-yl-pyrido[3,4-d]pyrimidin-2-yl)-pyridin-2-yl]-phenyl-amine] registered a melting point of 221 to 223 °C. Moreover, the concentration for half-maximal inhibition (IC50) on full-length human PKCι lay in the range of 10000 to 40000 nM.
Turning to `COc1cncc2nc(-c3ccnc(Nc4ccc(Cl)nc4)c3)nc(N3CCNCC3)c12` [Example 405, (6-Chloro-pyridin-3-yl)-[4-(5-methoxy-4-piperazin-1-yl-pyrido[3,4-d]pyrimidin-2-yl)-pyridin-2-yl]-amine], the melting point lay in the range of 206 to 208 °C. Further, the IC50 on full-length human PKCι is below 100 nM.
In turn, `c1ccc(Nc2cc(-c3nc(N4CCNCC4)c4c(C5CC5)cncc4n3)ccn2)cc1` [Example 481, [4-(5-Cyclopropyl-4-piperazin-1-yl-pyrido[3,4-d]pyrimidin-2-yl)-pyridin-2-yl]-phenyl-amine] returned a melting point of 221 to 226 °C.
`CS(=O)(=O)N[C@H](CNc1nc(-c2ccncc2)nc2cnccc12)Cc1ccccc1` [Example 83, N-(1-phenyl-3-{[2-(pyridin-4-yl)pyrido[3,4-d]pyrimidin-4-yl]amino}propan-2-yl)methanesulfonamide]: the IC50 at full-length human PKCι was in the range of 10000 to 40000 nM.
For `COc1cncc2nc(-c3ccncc3)nc(N3CCN[C@@H](Cc4ccccc4)C3)c12` [Example 30, (3S)-3-benzyl-1-[5-methoxy-2-(pyridin-4-yl)-pyrido[3,4-d]-pyrimidin-4-yl]-piperazine], at full-length human PKCι, the IC50 was 1000 to 10000 nM.
In the case of `Clc1cccc(Cl)c1Nc1cc(-c2nc(N3CCNCC3)c3c(C4CC4)cncc3n2)ccn1` [Example 539, [4-(5-Cyclopropyl-4-piperazin-1-yl-pyrido[3,4-d]pyrimidin-2-yl)-pyridin-2-yl]-(2,6-dichloro-phenyl)-amine], at full-length human PKCι, the IC50 is below 100 nM.
Same read-out and setting: the result for `c1cc(-c2nc(N3CCNCC3)c3c(C4CC4)cncc3n2)c2cc([C@H]3C[C@H]4CC[C@@H]3C4)[nH]c2n1` (racemic) [Example 2079, (±)-2-((endo)-2-Bicyclo[2.2.1]hept-2-yl-1H-pyrrolo[2,3-b]pyridin-4-yl)-5-cyclopropyl-4-piperazin-1-yl-pyrido[3,4-d]pyrimidine] reads below 100 nM.
For `c1cc(-c2nc(N3CCNCC3)c3c(C4CC4)cncc3n2)cc(Nc2ccn3nccc3c2)n1` [Example 564, [4-(5-Cyclopropyl-4-piperazin-1-yl-pyrido[3,4-d]pyrimidin-2-yl)-pyridin-2-yl]-pyrazolo[1,5-a]pyridin-5-yl-amine], on full-length human PKCι, the IC50 was below 100 nM.
Still for that read-out and setting: the result for `CN1CCN(c2cccc(Nc3cc(-c4nc(N5CC[C@H](O)[C@H](O)C5)c5c(C6CC6)cncc5n4)ccn3)c2)CC1` (racemic) [Example 602, (+/−)-(cis)-1-(5-Cyclopropyl-2-{2-[3-(4-methyl-piperazin-1-yl)-phenylamino]-pyridin-4-yl}-pyrido[3,4-d]pyrimidin-4-yl)-piperidine-3,4-diol] reads below 100 nM.
The same measure, in the same setting: the result for `Fc1cnc(Nc2cc(-c3nc(N4CCC(C5CCOCC5)C4)c4c(C5CC5)cncc4n3)ccn2)c(F)c1` (stereo not shown) [Example 2173, (4-{5-Cyclopropyl-4-[3-(tetrahydro-pyran-4-yl)-pyrrolidin-1-yl]-pyrido[3,4-d]pyrimidin-2-yl}-pyridin-2-yl)-(3,5-difluoro-pyridin-2-yl)-amine] reads 1000 to 10000 nM.
The same measure, in the same setting: the result for `Fc1cccnc1Nc1cc(-c2nc(N3CCNCC3)c3c(C4CC4)cncc3n2)ccn1` [Example 526, [4-(5-Cyclopropyl-4-piperazin-1-yl-pyrido[3,4-d]pyrimidin-2-yl)-pyridin-2-yl]-(3-fluoro-pyridin-2-yl)-amine] reads below 100 nM.
On to `COc1cncc2nc(-c3ccncc3)nc(N3CC[C@H](N)C3)c12` [Example 53, (3S)-1-[5-methoxy-2-(pyridin-4-yl)-pyrido[3,4-d]-pyrimidin-4-yl]-pyrrolidin-3-amine], for which, at full-length human PKCι, the IC50 was 100 to 1000 nM.
As to `CS(=O)(=O)CCN1CCN(c2nc(-c3ccnc(Nc4ccc(F)cc4)c3)nc3cncc(C4CC4)c23)CC1` [Example 664, (4-{5-Cyclopropyl-4-[4-(2-methanesulfonyl-ethyl)-piperazin-1-yl]-pyrido[3,4-d]pyrimidin-2-yl}-pyridin-2-yl)-(4-fluoro-phenyl)-amine], at full-length human PKCι, the IC50 is 1000 to 10000 nM.
Consider `c1ccn2nc(Nc3cc(-c4nc(N5CCNCC5)c5c(C6CC6)cncc5n4)ccn3)nc2c1` [Example 743, [4-(5-Cyclopropyl-4-piperazin-1-yl-pyrido[3,4-d]pyrimidin-2-yl)-pyridin-2-yl]-[1,2,4]triazolo[1,5-a]pyridin-2-yl-amine], for which, on full-length human PKCι, the IC50 was below 100 nM.
The same measure, in the same setting: the result for `N[C@@H](CNc1nc(-c2ccncc2)nc2c(Nc3ccccc3)nccc12)Cc1ccccc1` [Example 123, N^4-((R)-2-Amino-3-phenyl-propyl)-N^8-phenyl-2-pyridin-4-yl-pyrido[3,4-d]pyrimidine-4,8-diamine] reads 1000 to 10000 nM; that for `NC(=O)N1CCN(c2nc(-c3ccnc(Nc4ccccc4)c3)nc3cncc(C4CC4)c23)CC1` [Example 638, 4-[5-Cyclopropyl-2-(2-phenylamino-pyridin-4-yl)-pyrido[3,4-d]pyrimidin-4-yl]-piperazine-1-carboxylic acidamide], 100 to 1000 nM; that for `COc1cncc2nc(-c3ccnc4[nH]ccc34)nc(N3CCN[C@@H](CO)C3)c12` [Example 1206, {(R)-4-[5-Methoxy-2-(1H-pyrrolo[2,3-b]pyridin-4-yl)-pyrido[3,4-d]pyrimidin-4-yl]-piperazin-2-yl}-methanol], below 100 nM.
As to `Cc1ccc(Nc2cc(-c3nc(N[C@@H]4CCNC4)c4ccncc4n3)ccn2)nc1` [Example 345, {2-[2-(5-Methyl-pyridin-2-ylamino)-pyridin-4-yl]-pyrido[3,4-d]pyrimidin-4-yl}-(R)-pyrrolidin-3-yl-amine], the IC50 on full-length human PKCι is below 100 nM.
For the molecule `Cc1cccc(-c2nccc3c(NC[C@@H](N)Cc4ccccc4)nc(-c4ccncc4)nc23)c1` [Example 119, N-[(2S)-2-amino-3-phenylpropyl]-8-(3-methyl-phenyl)-2-(pyridin-4-yl)-pyrido[3,4-d]-pyrimidin-4-amine], on full-length human PKCι, the IC50 was in the range of 1000 to 10000 nM.
Still for that read-out and setting: the result for `Clc1ncc(Cl)c2c(N3CCNCC3)nc(-c3ccncc3)nc12` [Example 134, 1-[5,8-dichloro-2-(pyridin-4-yl)pyrido[3,4-d]pyrimidin-4-yl]piperazine] reads below 100 nM; that for `COc1cncc2nc(-c3ccncc3)nc(N3CCN4C(=O)OC[C@H]4C3)c12` [Example 86, (3aR)-5-[5-methoxy-2-(pyridin-4-yl)pyrido[3,4-d]pyrimidin-4-yl]-hexahydro-1H-[1,3]oxazolo[3,4-a]piperazin-1-one], 1000 to 10000 nM; that for `Fc1c(-c2nc(N3CCNCC3)c3c(C4CC4)cncc3n2)ccnc1Nc1ccccc1` [Example 701, [4-(5-Cyclopropyl-4-piperazin-1-yl-pyrido[3,4-d]pyrimidin-2-yl)-3-fluoro-pyridin-2-yl]-phenyl-amine], 10000 to 40000 nM.
On the same count and under the same terms, the result for `COc1cncc2nc(-c3ccnc(Nc4ccccc4)c3)nc(N3CCC[C@H](O)C3)c12` [Example 425, (S)-1-[5-Methoxy-2-(2-phenylamino-pyridin-4-yl)-pyrido[3,4-d]pyrimidin-4-yl]-piperidin-3-ol] reads 1000 to 10000 nM.
Take `Clc1cncc2nc(-c3ccncc3)nc(N3CCNCC3)c12` [Example 132, 5-Chloro-4-piperazin-1-yl-2-pyridin-4-yl-pyrido[3,4-d]pyrimidine]: on full-length human PKCι, the concentration for half-maximal inhibition (IC50) is below 100 nM.
For the molecule `Fc1cccc(Nc2cc(-c3nc(N4CCNCC4)c4c(Cl)cncc4n3)ccn2)n1` [Example 253, [4-(5-Chloro-4-piperazin-1-yl-pyrido[3,4-d]pyrimidin-2-yl)-pyridin-2-yl]-(6-fluoro-pyridin-2-yl)-amine], the IC50 on full-length human PKCι was below 100 nM.
Turning to `Fc1cccc(F)c1Nc1cc(-c2nc(N3CCNCC3)c3c(C4CC4)cnc(F)c3n2)ccn1` [Example 2101, [4-(5-Cyclopropyl-8-fluoro-4-piperazin-1-yl-pyrido[3,4-d]pyrimidin-2-yl)-pyridin-2-yl]-(2,6-difluoro-phenyl)-amine], the IC50 on full-length human PKCι was below 100 nM.
Regarding `COc1cncc2nc(-c3ccncc3)nc(N3CCN[C@@H](CO)C3)c12` [Example 46, [(2R)-4-[5-methoxy-2-(pyridin-4-yl)-pyrido[3,4-d]-pyrimidin-4-yl]-piperazin-2-yl]-methanol], at full-length human PKCι, the IC50 is below 100 nM.
`N[C@H]1CCC[C@H]1C(=O)Nc1cc(-c2nc(N3CCNCC3)c3c(C4CC4)cncc3n2)ccn1` [Example 561, (1R,2S)-2-Amino-cyclopentane-carboxylic acid [4-(5-cyclopropyl-4-piperazin-1-yl-pyrido[3,4-d]pyrimidin-2-yl)-pyridin-2-yl]-amide]: the IC50 at full-length human PKCι was below 100 nM.
With `COc1cncc2nc(-c3ccnc(Nc4cc(C#N)ccn4)c3)nc(N3CCC[C@H](O)C3)c12` [Example 426, 2-{4-[4-((S)-3-Hydroxy-piperidin-1-yl)-5-methoxy-pyrido[3,4-d]pyrimidin-2-yl]-pyridin-2-ylamino}-isonicotinonitrile], on full-length human PKCι, the IC50 fell in the range of 1000 to 10000 nM.

For orientation: melting point means the temperature, or range, at which the solid turns liquid. What is called IC50 is the concentration that inhibits the measured activity by half.
